The text below walks through data of US5332811A, “Etopside analogs” (priority 1991, dated 1994).

Like-named read-outs stand apart in the source and are kept apart here.

Test [1] deals with KB cells. Briefly: Cytotoxicity: 50% reduction in cell number of KB cells after three day incubation. Type of test: cell-based. As to conditions: Homo sapiens, 72 h, read-out: Cytotoxicity ID50 KB. As for the experimental part:
(§1) The compounds of the present invention were tested for their degree of inhibitory activity on human type II DNA topoisomerase, their effect on the formation of protein-linked DNA breakage, and their cytotoxicity. The inhibitory activity for compounds of the present invention correlated with the ability of the compounds to cause DNA strand breakage. […] For a description of the assays used with respect to the compounds listed in Tables 1 to 5 see Thurston, L.S., Irie, H., Tani, S., Han, F. S., Liu, Z. C., Cheng, Y.C., and Lee, K. H., Antitumor Agents 78. Inhibition of Human DNA Topoisomerase II by Podophyllotoxin and Peltatin Analogues, J. Med. Chem. 29, 1547 (1986), and the references cited therein, herein incorporated by reference.
in cell number after three day incubation.

The target in test [2] is Human DNA topoisomerase II. Kind of test: DNA topoisomerase II assay (P4 unknotting reaction). It counts as biochemical. As to conditions: read-out: Inhibition of DNA Topoisomerase II Activity ID50. The method, then:
as §1, with “cytotoxicity.” for “cytotoxicity. The inhibitory activity for compounds of the present invention correlated with the ability of the compounds to cause DNA strand breakage.”
Human DNA topoisomerase II was isolated from peripheral blast cells of a patient with acute leukemia. The isolation procedure is described in Thurston, L., Imakura, Y., Haruna, M., Li, Z. C., Liu, S. Y., and Lee, K. H., J. Med. Chem., 31, […] (1988) and is a partial combination of the procedure described in Goto, T., Laiapia, P. and Wang, J., J. Biol. Chem., 259, 10422 (1984) and Halligan, B., Edwards, K., and Liu, L., J. Biol. Chem., 260, 2475 (1985) which are herein specifically incorporated by reference.
Drugs were dissolved in Me2 SO at a concentration of 20 mM as the stock solution and diluted before use with water to the desired concentration of each drug.
The P4 unknotting reaction was a modification of the procedure described by Hseih, T., J. Biol. Chem., 258, 8413 (1985), which is herein specifically incorporated by reference.
The reaction mixture (20 μL), which contained 50 mM HEPES, pH 7.0, 50 mM KCI, 100 mM NaCl, 0.1 mM EDTA, 10 mM MgCl2, 1.0 mM ATP, 50 μg/mL bovine serum albumin, 0.4 μg P4knotted DNA, and enzyme, was incubated with or without drugs.
The reaction mixture was incubated at 37° C. for 30 min and terminated by adding 5.0 μl of a stop solution (2% sodium dodecyl sulfate, 20% glycerol, 0.05% bromophenol blue). These samples were loaded onto a 1% agarose gel and electrophoresed at 55 V overnight with an electrophoresis buffer that contained 90 mM Tris-boric acid, pH 8.3, and 2.5 mM EDTA. At completion, the gel was stained in 0.5 μg/mL of ethidium bromide. Then a photograph was taken of the DNA bands visualized with fluorescence induced by a long-wavelength UV lamp. […]

Setting [3] is: Table 1, KB cells, three day incubation.
Setting [4] is: Table 1, based on degree of inhibition at 25, 50, and 100 μM.
[5] abbreviates: Table 2, KB cells, three day incubation.
The mark [6] stands for this setting: Table 2, based on degree of inhibition at 10, 25, 50 and 100 μM.
Where [7] appears, read: Table 3, based on degree of inhibition at 20, 25, 50 and 100 μM.
The mark [8] stands for this setting: Table 3, KB cells, three day incubation.

With `COc1cc(C2c3cc4c(cc3C(NCc3ccccc3)C3COC(=O)C23)OCO4)cc(OC)c1O` (stereo not drawn) [Example 3, 4'-O-Demethyl-4β-benzylamino-4-desoxypodophyllotoxin], the values for the IC50 in test [1] (setting [3]) and in test [2] (setting [4]) were 2.2 µM and 25 µM, respectively.
In the case of `COc1cc(C2c3cc4c(cc3C(NCc3ccc([N+](=O)[O-])cc3)C3COC(=O)C23)OCO4)cc(OC)c1O` (stereo not drawn) [Example 4, 4'-O-Demethyl-4β-(4"-nitrobenzylamino)-4-desoxypodophyllotoxin], the IC50 in test [1] (setting [3]) was determined as 0.4 µM; in test [2] (setting [4]), 50 µM.
In the case of `COc1cc(C2c3cc4c(cc3C(NCc3cccc([N+](=O)[O-])c3)C3COC(=O)C23)OCO4)cc(OC)c1O` (stereo not drawn) [Example 5, 4'-O-Demethyl-4β-(3"-nitrobenzylamino)-4-desoxypodophyllotoxin], the results for the IC50 in test [1] (setting [3]) and in test [2] (setting [4]) were less than 0.4 µM and 25 µM, respectively.
On to `COc1cc(C2c3cc4c(cc3C(NCc3ccccc3[N+](=O)[O-])C3COC(=O)C23)OCO4)cc(OC)c1O` (stereo not drawn) [Example 6, 4'-O-Demethyl-4β-(2"-nitrobenzylamino)-4-desoxypodophyllotoxin], for which the IC50 came to 1.8 µM in test [1] (setting [3]) and 50 µM in test [2] (setting [4]).
On to `COc1cc(C2c3cc4c(cc3C(NCc3ccccc3F)C3COC(=O)C23)OCO4)cc(OC)c1O` (stereo not drawn) [Example 7, 4-O-Demethyl-4β-(2"-fluorobenzylamino)-4-desoxypodophyllotoxin], for which the IC50 in test [1] (setting [3]) was found to be 1.9 µM; in test [2] (setting [4]), 100 µM.
For the molecule `COc1cc(C2c3cc4c(cc3C(NCc3ccc(F)cc3)C3COC(=O)C23)OCO4)cc(OC)c1O` (stereo not drawn) [Example 9, 4'-O-Demethyl-4β-(4"-fluorobenzylamino)-4-desoxypodophyllotoxin], the IC50 in test [1] (setting [3]) is greater than 4 µM; in test [2] (setting [4]) it was 50 µM.
Turning to `COc1cc(CNC2c3cc4c(cc3C(c3cc(OC)c(O)c(OC)c3)C3C(=O)OCC23)OCO4)cc(OC)c1` (stereo not drawn) [Example 12, 4'-O-Demethyl-4β-(3",5"-dimethoxybenzylamino)-4-desoxypodophyllotoxin], the IC50 in test [1] (setting [3]) is 1.7 µM; in test [2] (setting [4]), 100 µM.
Take `COc1cc(C2c3cc4c(cc3C(NCc3cccc(N)c3)C3COC(=O)C23)OCO4)cc(OC)c1O` (stereo not drawn) [Example 13, 4'-O-Demethyl-4β-(3"-aminobenzylamino)-4-desoxypodophyllotoxin]: the IC50 was less than 0.4 µM in test [1] (setting [3]) and 25 µM in test [2] (setting [4]).
For `COc1cc(C2c3cc4c(cc3C(NCc3ccccc3N)C3COC(=O)C23)OCO4)cc(OC)c1O` (stereo not drawn) [Example 14], the IC50 in test [1] (setting [3]) was less than 0.4 µM; in test [2] (setting [4]), 25 µM.
`COc1cc(C2c3cc4c(cc3C(Nc3ccccc3)C3COC(=O)C23)OCO4)cc(O)c1O` (stereo not drawn) [Example 17, 3',4'-O-Didemethyl-4β-anilino-4-desoxypodophyllotoxin]: the IC50 turned out to be 1.7 µM in test [1] (setting [5]) and 25 µM in test [2] (setting [6]).
As for `COc1cc(C2c3cc4c(cc3C(Nc3ccc(F)cc3)C3COC(=O)C23)OCO4)cc(O)c1O` (stereo not drawn) [Example 18, 3',4'-O-didemethyl-4β-(4"-floroanilino)-4-desoxypodophyllotoxin], the values for the IC50 in test [1] (setting [5]) and in test [2] (setting [6]) were 3 µM and 10 µM, respectively.
Regarding `COc1cc(C2c3cc4c(cc3C(Nc3cccc(O)c3)C3COC(=O)C23)OCO4)cc(O)c1O` (stereo not drawn) [Example 19, 3',4'-O-Didemethyl-4β-(3"-hydroxyanilino)-4-desoxypodophyllotoxin], the IC50 in test [1] (setting [5]) was 1.6 µM; in test [2] (setting [6]), 10 µM.
Taken in the same sequence, the figures for `COc1cc(C2c3cc4c(cc3C(Nc3ccc5c(c3)OCCO5)C3COC(=O)C23)OCO4)cc(O)c1O` (stereo not drawn) [Example 20] were 2.3 µM and 10 µM.
On to `COC(=O)c1cccc(N[C@@H]2c3cc4c(cc3[C@@H](c3cc(O)c(O)c(OC)c3)[C@H]3C(=O)OC[C@@H]32)OCO4)c1` [Example 21, 3'.4'-O-Didemethyl-4β-(3"-methoxycarbonylanilino)-4-desoxypodophyllotoxin], for which the IC50 was 1.9 µM in test [1] (setting [5]) and 1 µM in test [2] (setting [6]).
As for `COc1cc(C2c3cc4c(cc3C(Nc3ccc(C#N)cc3)C3COC(=O)C23)OCO4)cc(O)c1O` (stereo not drawn) [Example 22, 3'.4'-O-Didemethyl-4β-(4"-cyanoanilino)-4-desoxypodophyllotoxin], the IC50 in test [1] (setting [5]) turned out to be 1.5 µM; in test [2] (setting [6]), 10 µM.
For the molecule `COc1cc([C@@H]2c3cc(O)c(O)cc3[C@@H](Nc3ccccc3)[C@H]3COC(=O)[C@H]23)cc(OC)c1O` [Example 26, 6,7-O-Demethylene-4'-O-demethyl-4β-anilino-4-desoxypophyllotoxin], the IC50 is greater than 1 µM in test [1] (KB) and 25 µM in test [2] (setting [7]).
Take `COc1cc([C@@H]2c3cc(O)c(O)cc3[C@@H](Nc3ccc([N+](=O)[O-])cc3)[C@H]3COC(=O)[C@H]23)cc(OC)c1O` [Example 27, 6,7-O-Demethylene-4'-O-demethyl-4β-(4"-nitroanilino)-4-desoxypodophyllotoxin]: the IC50 in test [1] (setting [8]) came out at 0.76 µM; in test [2] (setting [7]) it was 20 µM.
Taken in the same sequence, the figures for `CCOC(=O)c1ccc(N[C@@H]2c3cc(O)c(O)cc3[C@@H](c3cc(OC)c(O)c(OC)c3)[C@H]3C(=O)OC[C@@H]32)cc1` [Example 28, 6,7-O-Demethylene-4'-O-demethyl-4β-[4"-(ethoxycarbonyl)anilino]-4-desoxypodophyllotoxin] were 0.78 µM and 20 µM.
Consider `COc1cc([C@@H]2c3cc(O)c(O)cc3[C@@H](Nc3ccc(C#N)cc3)[C@H]3COC(=O)[C@H]23)cc(OC)c1O` [Example 29, 6,7-O-Demethylene-4'-O-demethyl-4β-(cyanoanilino)-4-deoxypodophyllotoxin], for which the IC50 in test [1] (setting [8]) worked out at 1 µM; in test [2] (setting [7]), 20 µM.
With `COc1cc([C@@H]2c3cc(O)c(O)cc3[C@@H](Nc3ccc(F)cc3)[C@H]3COC(=O)[C@H]23)cc(OC)c1O` [Example 30, 6,7-O-Demethylene-4'-O-demethyl-4β-(fluoroanilino)-4-desoxypodophyllotoxin], the IC50 is greater than 1 µM in test [1] (setting [8]) and 25 µM in test [2] (setting [7]).
Taken in the same sequence, the figures for `COc1cc2c(cc1OC)[C@@H](Nc1ccc(F)cc1)[C@H]1COC(=O)[C@@H]1[C@@H]2c1cc(OC)c(O)c(OC)c1` [Example 31, 6,7-O-demethylene-6,7-O-dimethyl-4'-O-demethyl-4β-(4"-fluoroanilino)-4-desoxypodophyllotoxin] were 0.4 µM and 50 µM.
Consider `COc1cc2c(cc1OC)[C@@H](Nc1ccc(C#N)cc1)[C@H]1COC(=O)[C@@H]1[C@@H]2c1cc(OC)c(O)c(OC)c1` [Example 32, 6,7-O-demethylene-6,7-O-dimethyl-4'-O-demethyl-4β-(4"-cyanoanilino)-4-desoxypodophyllotoxin], for which the IC50 in test [1] (setting [8]) was less than 0.4 µM; in test [2] (setting [7]) it was 50 µM.
On to `CCOC(=O)c1ccc(N[C@@H]2c3cc(OC)c(OC)cc3[C@@H](c3cc(OC)c(O)c(OC)c3)[C@H]3C(=O)OC[C@@H]32)cc1` [Example 33, 6,7-O-demethylene-6,7-O-dimethyl-4'-O-demethyl-4β-[4"-(ethoxycarbonyl)anilino]-4-desoxypodophyllotoxin], for which the IC50 in test [1] (setting [8]) is less than 0.4 µM; in test [2] (setting [7]), 100 µM.
As to `COc1cc([C@@H]2c3cc4c(cc3[C@@H](NC(=O)c3ccccc3)[C@H]3COC(=O)[C@H]23)OCO4)cc(OC)c1O` [Example 34, 4'-O-Demethyl-4β-(benzoylamino)-4-desoxypodophyllotoxin], the IC50 in test [1] (Table 4, KB cells, three day incubation) was 0.64 µM; in test [2] (Table 4, based on degree of inhibition at 10, 25, 50 and 100 μM), greater than 50 µM.
